Test results published in patent US11168072B2, “Crystal form of morpholino quinazoline compound, preparation method therefor and use thereof” (SHANGHAI YINGLI PHARMACEUTICAL CO., LTD, priority 2018, dated 2021).
“Also recorded” adds a separate entry of the source.

Key:
Assay type in all cases: physicochemical
[1] = Stability under high temperature, high humidity, illumination (influencing factors); conditions: for stability under illumination conditions (conclusion): illumination 4500±500 Lux; for changes in the appearance: illumination, high temperature (60° C.) and high humidity (25° C., RH75%) for 10 days
Procedure: Appropriate amount of the samples of the crystal form I of the morpholino quinazoline compound represented by formula A were placed on culture dishes which were then left open under high temperature (40±2° C. and 60±2° C.), high humidity (25° C., RH75±5% and RH90±5%) and illumination (4500±500 Lux, 25° C.) conditions, respectively.
Appropriate amount of the samples of the amorphous form of the morpholino quinazoline compound represented by formula A and the samples of the crystal form II of the morpholino quinazoline compound represented by formula A were placed on culture dishes respectively, which were then left open under high temperature (60±2° C.), high humidity (25° C., RH75±5%) and illumination (4500±500 Lux, 25° C.) conditions, respectively.

[2] = Dynamic vapor sorption analysis (DVS); conditions: for increase by mass compared to the initial mass (DVS weight gain): relative humidity from 0% to 95%
Procedure: (§1) Dynamic vapor sorption analysis (DVS): about 10 mg of the sample was taken and dried for 60 minutes under a temperature set at 25° C. and a humidity of 0% RH, and then the moisture sorption characteristics of the sample when the humidity changed from 0% RH to 95% RH was tested, and the moisture desorption characteristics of the sample when the humidity changed from 95% RH to 0% RH was tested; the humidity change step was 5% RH; the value of the mass change rate dm/dt less than 0.002% was considered as balance equilibrium, the rate of mass change within 5 minutes less than 0.01%/minute was considered as the equilibrium standard in the testing process, and the maximum equilibrium time was 2 hours. The isothermal water adsorption/desorption characteristics under this test condition were determined and XRPD detection was performed on the samples after the DVS test.
as §1, with “About” for “Dynamic vapor sorption analysis (DVS): about”

[3] = Stability of crystal form in water and organic solvents at room temperature for 10 days (suspension, XRPD)
Procedure: About 20 mg of solid samples of the crystal form I of the morpholino quinazoline compound represented by formula A were weighed respectively and placed into vials, 1 mL of water or organic solvent was added to the vials respectively, and sonicated for 5 min to obtain suspensions. The suspensions were spun at room temperature for 10 days and the filtered wet samples were characterized by XRPD.

[4] = Stability in organic solvents with slurrying at high temperature for 18 hours (XRPD); conditions: slurried in ethanol, isopropanol and n-heptane at 80° C. for 18 hours
Procedure: To 5 g of the crystal form I of the morpholino quinazoline compound represented by formula A was added 10 g of ethanol, 10 g of isopropanol, and 10 g of n-heptane. The mixture was slurried at 80° C. for 18 hours, cooled to room temperature, filtered, and dried under vacuum at less than 85° C. for 16 hours to obtain about 4 g of sample.

[5] = high temperature (60° C.) and high humidity (25° C., RH75%)
[6] = illumination 4500 Lux ± 500 Lux, 25° C., 5 days
[7] = illumination 4500 Lux ± 500 Lux, 25° C., 10 days
[8] = illumination (4500±500 Lux, 25° C.)
[9] = illumination 4500 Lux ± 500 Lux, 25° C., 1 month

Structure (SMILES): COc1ncc(-c2nc(N3CCOCC3)nc3c(CN4CCC(C(C)(C)O)CC4)cc(F)cc23)cc1NS(C)(=O)=O [Crystal form II]
- Content (%) ([1]; 0 day): 96.65%
- Total impurities (%) ([1]; 0 day): 3.28%
- Total impurities (%) ([1]; 25° C., RH 75 ± 5%, 5 days): 3.18%
- Total impurities (%) ([1]; 25° C., RH 75 ± 5%, 10 days): 3.61%
- Content (%) ([1]; 60° C., 5 days): 95.85%
- Content (%) ([1]; 60° C., 10 days): 97.0%
- Total impurities (%) ([1]; 60 ± 2° C., 5 days): 4.04%
- Total impurities (%) ([1]; 60 ± 2° C., 10 days): 2.97%
- Content (%) ([1]; 75% RH (25° C.), 5 days): 96.75%
- Content (%) ([1]; 75% RH (25° C.), 10 days): 96.24%
- change of total impurities content [1, 5]: increases slightly
- Content (%) [1, 6]: 96.26%
- Total impurities (%) [1, 6]: 3.64%
- Content (%) [1, 7]: 95.80%
- Total impurities (%) [1, 7]: 4.14%
- stability under illumination conditions (conclusion) ([1]; 25° C.): unstable
- change of total impurities content [1, 8]: increases significantly
- changes in the appearance [1]: no significant changes
- increase by mass compared to the initial mass (DVS weight gain) ([2]; 25° C.): 6.237%
- increase by mass compared to the initial mass (DVS weight gain) ([2]; 25° C., listed as crystal type II): 6.237%
- weight gain of crystal form II relative to that of crystal form I ([2]; relative humidity from 0 to 95%): 18 times

Structure (SMILES): COc1ncc(-c2nc(N3CCOCC3)nc3c(CN4CCC(C(C)(C)O)CC4)cc(F)cc23)cc1NS(C)(=O)=O [Crystal form I]
- stability in water and organic solvents (conclusion) ([3]; room temperature and high temperature): good stability
- crystal form of filtered wet sample by XRPD ([3]; suspension in water or organic solvents, room temperature, 10 days): did not change
- X-ray powder diffraction pattern versus crystal form I of Example 1 [4]: consistent
- stability under high temperature, high humidity and illumination conditions (conclusion) [1]: good stability
- Moisture (%) ([1]; 0 day): 0.07%
- Total impurities (%) ([1]; 0 day): 0.1%
- Moisture (%) ([1]; 25° C., RH 75 ± 5%, 1 month): 0.1%
- Total impurities (%) ([1]; 25° C., RH 75 ± 5%, 1 month): 0.1%
- Moisture (%) ([1]; 25° C., RH 75 ± 5%, 5 days): 0.1%
- Total impurities (%) ([1]; 25° C., RH 75 ± 5%, 5 days): 0.1%
- Moisture (%) ([1]; 25° C., RH 75 ± 5%, 10 days): 0.2%
- Total impurities (%) ([1]; 25° C., RH 75 ± 5%, 10 days): 0.1%
- Moisture (%) ([1]; 25° C., RH 90 ± 5%, 1 month): 0.1%
- Total impurities (%) ([1]; 25° C., RH 90 ± 5%, 1 month): 0.1%
- Moisture (%) ([1]; 25° C., RH 90 ± 5%, 5 days): 0.2%
- Total impurities (%) ([1]; 25° C., RH 90 ± 5%, 5 days): 0.1%
- Moisture (%) ([1]; 25° C., RH 90 ± 5%, 10 days): 0.2%
- Total impurities (%) ([1]; 25° C., RH 90 ± 5%, 10 days): 0.1%
- Moisture (%) ([1]; 40 ± 2° C., 1 month): 0.1%
- Total impurities (%) ([1]; 40 ± 2° C., 1 month): 0.1%
- Moisture (%) ([1]; 40 ± 2° C., 5 days): 0.1%
- Total impurities (%) ([1]; 40 ± 2° C., 5 days): 0.1%
- Moisture (%) ([1]; 40 ± 2° C., 10 days): 0.2%
- Total impurities (%) ([1]; 40 ± 2° C., 10 days): 0.1%
- Moisture (%) ([1]; 60 ± 2° C., 1 month): 0.1%
- Total impurities (%) ([1]; 60 ± 2° C., 1 month): 0.1%
- Moisture (%) ([1]; 60 ± 2° C., 5 days): 0.2%
- Total impurities (%) ([1]; 60 ± 2° C., 5 days): 0.1%
- Moisture (%) ([1]; 60 ± 2° C., 10 days): 0.2%
- Total impurities (%) ([1]; 60 ± 2° C., 10 days): 0.1%
- Moisture (%) [1, 9]: 0.1%
- Total impurities (%) [1, 9]: 0.2%
- Moisture (%) [1, 6]: 0.1%
- Total impurities (%) [1, 6]: 0.1%
- Moisture (%) [1, 7]: 0.1%
- Total impurities (%) [1, 7]: 0.1%
- hygroscopicity (conclusion) [2]: less hygroscopicity; also recorded: very low hygroscopicity
- increase by mass compared to the initial mass (DVS weight gain) ([2]; 25° C.): 0.34%
- increase by mass compared to the initial mass (DVS) ([2]; relative humidity from 0 to 90%, 25° C.): 0.23%

Structure (SMILES): COc1ncc(-c2nc(N3CCOCC3)nc3c(CN4CCC(C(C)(C)O)CC4)cc(F)cc23)cc1NS(C)(=O)=O [Amorphous form]
- Content (%) ([1]; 0 day): 98.60%
- Total impurities (%) ([1]; 0 day): 1.32%
- Total impurities (%) ([1]; 25° C., RH 75 ± 5%, 5 days): 1.37%
- Total impurities (%) ([1]; 25° C., RH 75 ± 5%, 10 days): 1.31%
- Content (%) ([1]; 60° C., 5 days): 98.43%
- Content (%) ([1]; 60° C., 10 days): 98.48%
- Total impurities (%) ([1]; 60 ± 2° C., 5 days): 1.54%
- Total impurities (%) ([1]; 60 ± 2° C., 10 days): 1.46%
- Content (%) ([1]; 75% RH (25° C.), 5 days): 98.51%
- Content (%) ([1]; 75% RH (25° C.), 10 days): 98.62%
- change of total impurities content [1, 5]: increases slightly
- Content (%) [1, 6]: 98.29%
- Total impurities (%) [1, 6]: 1.68%
- Content (%) [1, 7]: 97.80%
- Total impurities (%) [1, 7]: 2.16%
- stability under illumination conditions (conclusion) ([1]; 25° C.): unstable
- change of total impurities content [1, 8]: increases significantly
- changes in the appearance [1]: no significant changes
